The text below walks through data of patent publication US10211534B2, “Sildenafil solutions and methods of making and using same” (priority 2014, dated 2019).

Counter-ions that a name gives are not always drawn. Like-named read-outs stand apart in the source and are kept apart here.

A short description of series [1]: solubility of sildenafil citrate in EtOH/water mixtures with and without acetone (Example 1). In kind it is physicochemical. The note with it: Table 1; sildenafil citrate remaining in solution after heating.
Series [2] can be described thus: spectrophotometric analysis at 228 nm before and after filtration via a 0.22 micron filter (Example 12). In kind it is physicochemical. The note with it: at 18 mg/ml in 70% ethanol. As to the method: A UV-VIS Genesys 10S Thermo Scientific spectrophotometer was used for the assay. Samples were placed in a UV Kurette Halbmicro/UV Cuvette semi micro [Cat no: 759150] for reading.
Because the reference describes measurements at μg/ml concentrations, both the filtered and unfiltered 18 mg/ml solutions were diluted to 9 μg/ml and 12.5 μg/ml and measured again.

For series [3] the following is noted: cited from earlier work.
The conditions of series [4]: tablets or oral suspension; cited from earlier work.
Setting [5] is: EMEA CHMP Assessment Report For Vizarsin.
Where [6] appears, read: Jordanian Pharmaceutical Manufacturing Co.

Turning to `CCCc1nn(C)c2c(=O)[nH]c(-c3cc(S(=O)(=O)N4CCN(C)CC4)ccc3OCC)nc12` [sildenafil citrate], the “Final conc. (After heating)” value in series [1] is at most 35.7 mg/mL. For the same compound, in series [2], the “solubility as prepared in Example 1” value is reported as “fully soluble”. Further, in series [3] (setting [5]), the solubility in acetone result was “insoluble”, the solubility in chloroform entry is reported as “insoluble”, the “solubility in dimethylsulfoxide (DMSO)” value is “soluble” and the solubility in ethanol result is on record as “insoluble”. Moreover, in series [3] (setting [5]), the solubility in methanol entry is “soluble”. Moreover, in series [3] (setting [6]), the solubility in ethanol was about 1000 µg/mL and the “times less soluble in ethanol than in water” value was “about 3.5 times”. Also, the absolute bioavailability result in series [4] is recorded as “about 41%”.
